From patent US7670613B2, “Androgen modulators” (Pfizer Inc., priority 2004, dated 2010)
Read-outs that look alike come from different tables or passages of the source.

Target: T1, androgen receptor (Homo sapiens, UniProt P10275, Q868H)
T1 construct: a human breast tumor cell line expressing androgen receptor; endogenous in cells; host or cells: MDA-MB453-MMTV clone 54-19 (only the MMTV-luciferase reporter was transfected)
T1 sequence (P10275 1-920 Q868H): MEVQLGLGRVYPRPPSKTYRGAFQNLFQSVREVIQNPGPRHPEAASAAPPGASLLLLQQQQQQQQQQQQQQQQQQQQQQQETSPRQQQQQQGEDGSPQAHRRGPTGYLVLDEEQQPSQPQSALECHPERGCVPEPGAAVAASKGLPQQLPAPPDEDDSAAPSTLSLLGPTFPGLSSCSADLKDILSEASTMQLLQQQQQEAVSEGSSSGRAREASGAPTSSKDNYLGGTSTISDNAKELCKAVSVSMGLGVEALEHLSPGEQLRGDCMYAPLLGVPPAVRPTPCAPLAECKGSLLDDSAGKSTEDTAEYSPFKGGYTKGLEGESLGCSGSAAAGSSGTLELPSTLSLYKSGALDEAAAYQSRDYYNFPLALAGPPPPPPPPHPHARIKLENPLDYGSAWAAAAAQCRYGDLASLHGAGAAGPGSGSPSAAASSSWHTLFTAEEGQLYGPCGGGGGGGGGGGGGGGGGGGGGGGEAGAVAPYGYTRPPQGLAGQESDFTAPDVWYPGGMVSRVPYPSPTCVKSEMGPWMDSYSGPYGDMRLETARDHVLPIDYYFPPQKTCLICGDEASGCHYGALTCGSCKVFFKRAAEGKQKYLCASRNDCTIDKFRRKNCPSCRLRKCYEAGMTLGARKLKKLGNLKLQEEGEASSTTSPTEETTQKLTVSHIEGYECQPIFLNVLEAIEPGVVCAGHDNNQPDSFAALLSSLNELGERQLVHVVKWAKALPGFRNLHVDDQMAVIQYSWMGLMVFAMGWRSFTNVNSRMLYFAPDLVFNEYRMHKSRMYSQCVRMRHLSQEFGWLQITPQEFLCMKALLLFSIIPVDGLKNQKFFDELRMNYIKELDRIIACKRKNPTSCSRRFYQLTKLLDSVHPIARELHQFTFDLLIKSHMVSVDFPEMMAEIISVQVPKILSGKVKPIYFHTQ
Test: AR antagonist cell assay (MDA-MB453-MMTV clone 54-19, luciferase reporter)
Format: cell-based
Details: 100 pM DHT, 17 hr, mean of multiple tests
Description: The compounds ability to antagonize the effects of androgen on the androgen receptor were determined in a whole cell assay as described immediately below.
Experimental Procedure for AR Antagonist Cell Assay
This cell line is a stable transfected cell line with MDA-MB453 cell background (a human breast tumor cell line expressing androgen receptor). A MMTV minimal promoter containing ARE was first cloned in front of a firefly luciferase reporter gene. Then the cascade was cloned into transfection vector pUV120puro. Electroporation method was used for transfecting MDA-MB-453 cell. Puromycin resistant stable cell line was selected.
Cell Culture Media and Reagents:
Culture medium: DMEM (high glucose, Gibco cat #: 11960-044), 10% FBS, and 1% L-glutamine
Plating medium: DMEM (phenol red free), 10% charcoal treated HyClone serum, 1% L-glutamine
Assay medium: DMEM (phenol red free), 1% charcoal treated HyClone serum, 1% L-glutamine, and 1% penicillin/streptomycin
3× luciferase buffer: 2% beta-mercaptoethanol, 0.6% ATP, 0.0135% luciferine in cell lysis buffer
• 1. Cells are maintained in culture medium, splitting cells when they reach 80-90% confluence • 2. To test compounds, 10,000 cells/well are plated to opaque 96 cell culture plate in 100 ul/well plating medium, culture for overnight at 37° C. in cell culture incubator • 3. Carefully remove plating medium, then add 80 ul/well of pre-warmed assay medium, add 10 ul/well testing compound (final concentration at) 1000 nM, 200 nM, 40 nM, 8 nM, 1.6 nM, and 0.32 nM), incubate at 37° C. for 30 minutes • 4. Add 10 ul/well freshly prepared DHT (final concentration at 100 pM) to each well, incubate at 37° C. for 17 hr (overnight) • 5.
The results are reported as the mean of multiple tests as described below (the numbers of tests are indicated in the footnote). N.D. denotes that the compound was not tested.

[1] = AR Cell IC50, MDA-MB453-MMTV clone 54-19 cells

| Structure (SMILES) | IC50 [1] | IC50 (MDA-MB453-MMTV clone 54-19 cells, read-out: AR Cell IC50) |
| --- | --- | --- |
| N#Cc1ccc(O[C@@H]2CCCC[C@H]2C#N)cc1C(F)(F)F (single isomer, unassigned) [Example 72, (trans)-(−)-4-(2-Cyano-cyclohexyloxy)-2-trifluoromethyl-benzonitrile] | 12 nM | – |
| N#Cc1ccc(O[C@@H]2CCCCC2C#N)cc1C(F)(F)F (stereo in doubt) [Example 14, -4-(2-Cyano-cyclohexyloxy)-2-trifluoromethyl-benzonitrile] | 13 nM | – |
| CC1CCCCC1Oc1ccc(C#N)c(C(F)(F)F)c1 (stereo not drawn) [Example 8, 4-(2-Methyl-cyclohexyloxy)-2-trifluoromethyl-benzonitrile] | – | 494 nM |
